Laboratory results reported in US12043632B2, “6-heteroaryloxy benzimidazoles and azabenzimidazoles as JAK2 inhibitors” (Ajax Therapeutics, Inc., priority 2020, dated 2024).

biological target: T1, JAK2 (JH1domain-catalytic, Y1007F,Y1008F) kinase (Homo sapiens, UniProt O60674, Y1007F/Y1008F); experiment: JAK2 JH1 Domain Binding Assay; details: qPCR readout
T1 construct: JAK2 (JH1domain-catalytic, Y1007F,Y1008F) kinase was expressed as N-terminal fusion; made in house; host or cells: transiently transfected HEK293 cells
T1 sequence (O60674 849-1124 Y1007F/Y1008F limits assumed): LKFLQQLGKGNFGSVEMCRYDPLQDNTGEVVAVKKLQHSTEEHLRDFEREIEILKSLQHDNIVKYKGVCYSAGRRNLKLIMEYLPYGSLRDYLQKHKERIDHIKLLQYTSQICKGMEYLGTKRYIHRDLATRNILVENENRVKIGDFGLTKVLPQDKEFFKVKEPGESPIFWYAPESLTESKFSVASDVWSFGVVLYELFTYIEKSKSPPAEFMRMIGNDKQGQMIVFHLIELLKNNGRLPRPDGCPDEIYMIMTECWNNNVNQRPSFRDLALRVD

Row | Compound | Kd
1 | CNc1cn2ncc(Oc3cnc4nc(Nc5cc6c(c(C(F)(F)F)c5)C(C)(C)N(C)C6=O)n(C)c4c3Cl)c2cn1 [Example I-311, 6-((7-chloro-1-methyl-6-((6-(methylamino)pyrazolo[1,5-a]pyrazin-3-yl)oxy)-1H-imidazo[4,5-b]pyridin-2-yl)amino)-2,3,3-trimethyl-4-(trifluoromethyl)isoindolin-1-one] | 10 to 50 nM
2 | CNc1cn2ncc(Oc3cnc4nc(Nc5cc(C6CC6)cn(C)c5=O)n(C)c4c3Cl)c2cn1 [Example I-312, 3-((7-chloro-1-methyl-6-((6-(methylamino)pyrazolo[1,5-a]pyrazin-3-yl)oxy)-1H-imidazo[4,5-b]pyridin-2-yl)amino)-5-cyclopropyl-1-methylpyridin-2(1H)-one] | < 10 nM
3 | CNc1cn2ncc(Oc3cnc4nc(Nc5cc(C(F)(F)F)cn(C(C)C)c5=O)n(C)c4c3Cl)c2cn1 [Example I-313, 3-((7-chloro-1-methyl-6-((6-(methylamino)pyrazolo[1,5-a]pyrazin-3-yl)oxy)-1H-imidazo[4,5-b]pyridin-2-yl)amino)-1-isopropyl-5-(trifluoromethyl)pyridin-2(1H)-one] | < 10 nM
4 | CNc1cn2ncc(Oc3cnc4nc(Nc5cc(O[C@H]6CCN(C)C6)cc(C(F)(F)F)c5)n(C)c4c3Cl)c2cn1 [Example I-314, (S)-7-chloro-1-methyl-6-((6-(methylamino)pyrazolo[1,5-a]pyrazin-3-yl)oxy)-N-(3-((1-methylpyrrolidin-3-yl)oxy)-5-(trifluoromethyl)phenyl)-1H-imidazo[4,5-b]pyridin-2-amine] | < 10 nM
5 | CNc1cn2ncc(Oc3cnc4nc(Nc5cc(O[C@@H]6CCN(C)C6)cc(C(F)(F)F)c5)n(C)c4c3Cl)c2cn1 [Example I-315, (R)-7-chloro-1-methyl-6-((6-(methylamino)pyrazolo[1,5-a]pyrazin-3-yl)oxy)-N-(3-((1-methylpyrrolidin-3-yl)oxy)-5-(trifluoromethyl)phenyl)-1H-imidazo[4,5-b]pyridin-2-amine] | < 10 nM
6 | CNc1cn2ncc(Oc3cnc4nc(Nc5cc(CN6CCCC6)cc(C(F)(F)F)c5)n(C)c4c3Cl)c2cn1 [Example I-316, 7-chloro-1-methyl-6-((6-(methylamino)pyrazolo[1,5-a]pyrazin-3-yl)oxy)-N-(3-(pyrrolidin-1-ylmethyl)-5-(trifluoromethyl)phenyl)-1H-imidazo[4,5-b]pyridin-2-amine] | 10 to 50 nM
7 | CNc1cn2ncc(Oc3cnc4nc(Nc5cc(C6CC6)nn(C)c5=O)n(C)c4c3Cl)c2cn1 [Example I-317, 4-((7-chloro-1-methyl-6-((6-(methylamino)pyrazolo[1,5-a]pyrazin-3-yl)oxy)-1H-imidazo[4,5-b]pyridin-2-yl)amino)-6-cyclopropyl-2-methylpyridazin-3(2H)-one] | 10 to 50 nM
8 | CNc1cn2ncc(Oc3cnc4nc(Nc5cc(C(F)(F)F)cn(C)c5=O)n(C)c4c3OC)c2cn1 [Example I-318, 3-((7-methoxy-1-methyl-6-((6-(methylamino)pyrazolo[1,5-a]pyrazin-3-yl)oxy)-1H-imidazo[4,5-b]pyridin-2-yl)amino)-1-methyl-5-(trifluoromethyl)pyridin-2(1H)-one] | 10 to 50 nM
9 | COCc1n[nH]c2ncc(Oc3cnc4nc(Nc5cc(C(F)(F)F)cn(C)c5=O)n(C)c4c3C#N)cc12 [Example I-319, 6-((3-(methoxymethyl)-1H-pyrazolo[3,4-b]pyridin-5-yl)oxy)-1-methyl-2-((1-methyl-2-oxo-5-(trifluoromethyl)-1,2-dihydropyridin-3-yl)amino)-1H-imidazo[4,5-b]pyridine-7-carbonitrile] | < 10 nM
10 | CNc1ccc2c(Oc3cnc4nc(Nc5cc(C(F)(F)F)cn(C)c5=O)n(C)c4c3)cnn2c1 [Example I-320, 1-methyl-3-((1-methyl-6-((6-(methylamino)pyrazolo[1,5-a]pyridin-3-yl)oxy)-1H-imidazo[4,5-b]pyridin-2-yl)amino)-5-(trifluoromethyl)pyridin-2(1H)-one] | 10 to 50 nM
11 | CNc1cn2ncc(Oc3cnc4nc(Nc5cc(C(F)(F)F)cn(C6CC6)c5=O)n(C)c4c3Cl)c2cn1 [Example I-321, 3-((7-chloro-1-methyl-6-((6-(methylamino)pyrazolo[1,5-a]pyrazin-3-yl)oxy)-1H-imidazo[4,5-b]pyridin-2-yl)amino)-1-cyclopropyl-5-(trifluoromethyl)pyridin-2(1H)-one] | < 10 nM
12 | Cn1c(Nc2cc(C(F)(F)F)n(C3CC4(COC4)C3)n2)nc2ncc(Oc3cnc4[nH]ccc4c3)c(C#N)c21 [Example I-322, 6-((1H-pyrrolo[2,3-b]pyridin-5-yl)oxy)-2-((1-(2-oxaspiro[3.3]heptan-6-yl)-5-(trifluoromethyl)-1H-pyrazol-3-yl)amino)-1-methyl-1H-imidazo[4,5-b]pyridine-7-carbonitrile] | 10 to 50 nM
13 | Cn1cc(C(F)(F)F)cc(Nc2nc3ncc(Oc4cnn5ccn(C)c(=O)c45)c(Cl)c3n2C)c1=O [Example I-323, 3-((7-chloro-1-methyl-2-((1-methyl-2-oxo-5-(trifluoromethyl)-1,2-dihydropyridin-3-yl)amino)-1H-imidazo[4,5-b]pyridin-6-yl)oxy)-5-methylpyrazolo[1,5-a]pyrazin-4(5H)-one] | 10 to 50 nM
14 | CNc1cn2ncc(Oc3cnc4nc(Nc5cc(C(F)(F)F)cn(-c6cccnc6)c5=O)n(C)c4c3Cl)c2cn1 [Example I-324, 3-((7-chloro-1-methyl-6-((6-(methylamino)pyrazolo[1,5-a]pyrazin-3-yl)oxy)-1H-imidazo[4,5-b]pyridin-2-yl)amino)-5-(trifluoromethyl)-2H-[1,3′-bipyridin]-2-one] | 50 to 1000 nM
15 | [2H]C([2H])([2H])n1cc(C(F)(F)F)cc(Nc2nc3ncc(Oc4cnn5cc(NC)ncc45)c(Cl)c3n2C)c1=O [Example I-325, 3-((7-chloro-1-methyl-6-((6-(methylamino)pyrazolo[1,5-a]pyrazin-3-yl)oxy)-1H-imidazo[4,5-b]pyridin-2-yl)amino)-1-(methyl-d3)-5-(trifluoromethyl)pyridin-2(1H)-one] | 10 to 50 nM
16 | CNc1cn2ncc(Oc3cnc4nc(Nc5ccc(CN6CCC(F)(F)C6)c(C(F)(F)F)c5)n(C)c4c3Cl)c2cn1 [Example I-326, 7-chloro-N-(4-((3,3-difluoropyrrolidin-1-yl)methyl)-3-(trifluoromethyl)phenyl)-1-methyl-6-((6-(methylamino)pyrazolo[1,5-a]pyrazin-3-yl)oxy)-1H-imidazo[4,5-b]pyridin-2-amine] | 50 to 1000 nM
17 | CNc1cn2ncc(Oc3cnc4nc(Nc5cc(CN(C)C)cc(C(F)(F)F)c5)n(C)c4c3Cl)c2cn1 [Example I-327, 7-chloro-N-(3-((dimethylamino)methyl)-5-(trifluoromethyl)phenyl)-1-methyl-6-((6-(methylamino)pyrazolo[1,5-a]pyrazin-3-yl)oxy)-1H-imidazo[4,5-b]pyridin-2-amine] | 10 to 50 nM
18 | CNc1cn2ncc(Oc3cnc4nc(Nc5cc(C(F)(F)F)cn(-c6cnn(C)c6)c5=O)n(C)c4c3Cl)c2cn1 [Example I-328, 3-((7-chloro-1-methyl-6-((6-(methylamino)pyrazolo[1,5-a]pyrazin-3-yl)oxy)-1H-imidazo[4,5-b]pyridin-2-yl)amino)-1-(1-methyl-1H-pyrazol-4-yl)-5-(trifluoromethyl)pyridin-2(1H)-one] | 10 to 50 nM
19 | Cc1c[nH]c2ncc(Oc3cnc4nc(Nc5cc(C(F)(F)F)cn(C)c5=O)n(C)c4c3C#N)cc12 [Example I-329, 1-methyl-6-((3-methyl-1H-pyrrolo[2,3-b]pyridin-5-yl)oxy)-2-((1-methyl-2-oxo-5-(trifluoromethyl)-1,2-dihydropyridin-3-yl)amino)-1H-imidazo[4,5-b]pyridine-7-carbonitrile] | < 10 nM
20 | Cn1c(Nc2cc(C(F)(F)F)n(C3CC4(COC4)C3)n2)nc2ncc(Oc3cnc4[nH]ncc4c3)c(C#N)c21 [Example I-330, 6-((1H-pyrazolo[3,4-b]pyridin-5-yl)oxy)-2-((1-(2-oxaspiro[3.3]heptan-6-yl)-5-(trifluoromethyl)-1H-pyrazol-3-yl)amino)-1-methyl-1H-imidazo[4,5-b]pyridine-7-carbonitrile] | < 10 nM
21 | CNc1cn2ncc(Oc3cnc4nc(Nc5cc(OC[C@@H]6CCCN6C)cc(C(F)(F)F)c5)n(C)c4c3Cl)c2cn1 [Example I-331, (S)-7-chloro-1-methyl-6-((6-(methylamino)pyrazolo[1,5-a]pyrazin-3-yl)oxy)-N-(3-((1-methylpyrrolidin-2-yl)methoxy)-5-(trifluoromethyl)phenyl)-1H-imidazo[4,5-b]pyridin-2-amine] | < 10 nM
22 | CNc1cn2ncc(Oc3cnc4nc(Nc5cc(OC[C@H]6CCCN6C)cc(C(F)(F)F)c5)n(C)c4c3Cl)c2cn1 [Example I-332, (R)-7-chloro-1-methyl-6-((6-(methylamino)pyrazolo[1,5-a]pyrazin-3-yl)oxy)-N-(3-((1-methylpyrrolidin-2-yl)methoxy)-5-(trifluoromethyl)phenyl)-1H-imidazo[4,5-b]pyridin-2-amine] | < 10 nM
23 | Cn1cc(C(F)(F)F)cc(Nc2nc3ncc(Oc4cnc5[nH]nc(C(F)(F)F)c5c4)c(C#N)c3n2C)c1=O [Example I-333, 1-methyl-2-((1-methyl-2-oxo-5-(trifluoromethyl)-1,2-dihydropyridin-3-yl)amino)-6-((3-(trifluoromethyl)-1H-pyrazolo[3,4-b]pyridin-5-yl)oxy)-1H-imidazo[4,5-b]pyridine-7-carbonitrile] | 10 to 50 nM
24 | Cc1c(Oc2cnc3nc(Nc4cc(C(F)(F)F)cn(C)c4=O)n(C)c3c2C#N)cnc2[nH]ccc12 [Example I-334, 1-methyl-6-((4-methyl-1H-pyrrolo[2,3-b]pyridin-5-yl)oxy)-2-((1-methyl-2-oxo-5-(trifluoromethyl)-1,2-dihydropyridin-3-yl)amino)-1H-imidazo[4,5-b]pyridine-7-carbonitrile] | 10 to 50 nM
25 | Cn1cc(C(F)(F)F)cc(Nc2nc3ncc(Oc4cnc5[nH]ccc5c4F)c(C#N)c3n2C)c1=O [Example I-335, 6-((4-fluoro-1H-pyrrolo[2,3-b]pyridin-5-yl)oxy)-1-methyl-2-((1-methyl-2-oxo-5-(trifluoromethyl)-1,2-dihydropyridin-3-yl)amino)-1H-imidazo[4,5-b]pyridine-7-carbonitrile] | < 10 nM
